The test system of data set [1] is MDA-MB-231 cells. Nature of the data set: Cell cycle analysis, sub-G1 (propidium iodide, flow cytometry). In kind it is cell-based, human. The conditions noted are these: MDA-MB-231, 100 μmol/l peptide, flow cytometry (Fig. 3a). The procedure:
MCF-7 and MDA-MB-231 cells were plated in 6-well plates for 24 hr, and the medium was replaced with fresh culture medium containing 100 μmol/l peptide. After incubation for 24 hr, the cells were harvested by trypsinization and then fixed with 70% 4 °C ethanol. Intracellular DNA was stained with […] propidium iodide in the dark for 30 min at room temperature, and the percentages of sub-G1 cells were determined by flow cytometry (BD LSRII analyzer; BD Biosciences).

The subject of data set [2] is MDA-MB-231 cells. As to the kind of experiment: TUNEL apoptosis assay. The class given is cell-based, human. The conditions noted are these: MDA-MB-231, 100 μmol/l, vs control or TAT-NLS-BLBD-6m (Fig. 3b). How it is done: (§1) MCF-7 and MDA-MB-231 cells were cultured in 35-mm plates with cover slides on the plate bottom and treated with NLS-BLBD-6, TAT-BLBD-6 and TAT-NLS-BLBD-6 peptide for 24 hr. Subsequently, cells were fixed with 4% paraformaldehyde and permeabilized with 0.2% Triton X-100 for 20 min at room temperature. For the immunofluorescence assay, the slides were incubated with primary antibodies, anti-β-catenin (Epitomics) and anti-TAT (Santa Cruz), for 6 hr, and Alexa-488 fluorescence secondary antibodies for 1 hr. DAPI (Sigma, St Louis, MO) was used to stain the nucleus for 1 min at room temperature. For the TUNEL assay, apoptosis was analyzed by the Apo-BrdU-red DNA Fragmentation Assay kit, according to the manufacturer’s protocol (BioVision, Mountain View, CA, USA). For the PLA, the protein–protein interaction assay was analyzed by Duolink® using PLA® Technology, according to the manufacturer’s protocol (Olink Bioscience, Uppsala, Sweden). Briefly, the slides were incubated with primary antibodies, anti-β-catenin (Epitomics) and anti-TAT (Santa Cruz), and secondary antibodies, Duolink PLA Rabbit MINUS and PLA Mouse PLUS proximity probes. Finally, the proximity ligation was performed by the Duolink detection reagent kit (Olink Bioscience). The immunofluorescence image and TUNEL staining was photographed by a microscope (IX-71, Olympus, Tokyo, Japan).

For another data set, the system named is MCF-7 cells. As to the kind of experiment: TUNEL apoptosis assay. The following applies: MCF-7, 100 μmol/l, vs control or TAT-NLS-BLBD-6m (Fig. 3b). The class given is cell-based, human. The procedure:
as §1

Data set [3] deals with β-catenin/TCF4/LEF downstream genes. As to the kind of experiment: Q-PCR of downstream genes in ZR-75-30. The class given is cell-based, human. The conditions noted are these: ZR-75-30, 100 μmol/l, 48 hr post-transfection, relative to TAT-NLS-BLBD-6m (Fig. 6g). The procedure: (§2) Total RNA was isolated by Trizol reagent (Invitrogen, Carlsbad, CA, USA) and reverse transcribed to produce cDNA using the Deoxy + HiSpec reverse transcriptase kit (Yeastern, Taipei, Taiwan) according to the manufacturer instructions. Q-PCR was analyzed with SYBR Green Master Mix (Applied Biosystems, Stockholm, Sweden) and subjected to quantitation in an […]. The primers used for PCR are given in Supplementary Table S5 online. The Q-PCR data were normalized to 18S cDNA levels.

Another data set relates to breast cancer cells. As to the kind of experiment: Cell growth in combination with E2, BBP or TAM (CCK-8). The class given is cell-based, human. The following applies: 48 hr (Fig. 1e).
A further data set concerns ZR-75-30 cells. As to the kind of experiment: Cell growth (CCK-8), HER2 positive cell line. The class given is cell-based, human. The conditions noted are these: ZR-75-30, 100 μmol/l, CCK-8 at 48 hr post-transfection (Fig. 6f).
The test system of data set [4] is MCF-7-YFP cells xenograft. Nature of the data set: Xenograft tumor growth in nude mice. The following applies: MCF-7 xenograft, 1 and 10 mg/kg intratumoral once every 2 days for 35 days, n = 5 per group, vs control peptide. In kind it is in vivo, mouse. An excerpt:
(§3) All animal experiments were approved by the Kaohsiung Medical University Institutional Animal Care and Use Committee (IACUC Approval No: 101156) and we accordance with the approved guidelines. Female nude mice (4–5 weeks old) were obtained from the National Laboratory Animal Center (Taipei, Taiwan). Xenograft tumor models were established by subcutaneous injection of 1 × 10^7 MCF-7-YFP or MDA-MB-231-GFP cells into the right flanks of mice. Mice with palpable tumors were randomly divided into three groups with five animals in each group. The mice were treated with control peptide, […], 1 and 10 mg/kg TAT-NLS-BLBD-6 by intratumoral injection once every 2 days for 35 days. The fluorescence density was analyzed by an In Vivo Imaging System (IVIS) (Berthold Technologies, Bad Wildbad, Germany), and the tumor volumes (V) of nude mice were calculated by: V = length × diameter^2 × 0.5. For zebrafish xenotransplantation, zebrafishes (Danio rerio) were maintained at 28 °C in an air incubator, and 1 × 10^4 MCF-7-GFP or MDA-MB-231-GFP cells combined with TAT-NLS-BLBD-6 or control peptide were injected into the zebrafish embryos according to the previously described protocol. The fluorescence density was measured 24 and 28 hr after injection using an epifluorescence microscope.

In data set [5] the test system is MDA-MB-231-GFP cells xenograft. Nature of the data set: Xenograft tumor growth in nude mice. The class given is in vivo, mouse. The conditions noted are these: MDA-MB-231 xenograft, 1 and 10 mg/kg intratumoral once every 2 days for 35 days, n = 5 per group, vs control peptide.
Description: as §3

The test system of data set [6] is β-catenin/TCF4/LEF-1 downstream genes. Nature of the data set: Q-PCR of 27 candidate genes in MCF-7. The class given is cell-based, human. The following applies: MCF-7, 100 μmol/l, 48 hr post-transfection, relative to TAT-NLS-BLBD-6m (Fig. 6d). The procedure: as §2
The test system is the same in data set [7]. Nature of the data set: Q-PCR of 27 candidate genes in MDA-MB-231. In kind it is cell-based, human. The conditions noted are these: MDA-MB-231, 100 μmol/l, 48 hr post-transfection, relative to TAT-NLS-BLBD-6m (Fig. 6e). How it is done: as §2
Data set [8] can be described thus: Body weight and toxicity in xenograft models. In kind it is in vivo, mouse.
Description: as §3

Description for ZR-75-30 cells: (§4) Cell growth was analyzed using 2-(2-methoxy-4-nitrophenyl)-3-(4-nitroph enyl)-5-(2,4-disulfophenyl)-2H-tetrazolium, monosodium salt, and the Cell Counting Kit-8 (CCK-8, Sigma). […] After culturing for another 48 hr, cell growth was analyzed by CCK-8 and the optical density was detected at 450 nm. The growth ratio was normalized to the cells without treatment.
Description for breast cancer cells: as §4

For H-TAT-NLS-ATDEMIPF-NH2 [TAT-NLS-BLBD-6], in the data set with MDA-MB-231 cells [1], the “sub-G1 phase region (pro-apoptotic effect)” value is given as 43.10%. Further, the “apoptosis (TUNEL, BrdU binding and DNA fragmentation)” value in the data set on MDA-MB-231 cells [2] was “increased the effect of binding with BrdU and DNA fragmentation”; in the data set with MCF-7 cells it was “increased the effect of binding with BrdU and DNA fragmentation”. Besides, the “expression of β-catenin/TCF4/LEF downstream genes” value in data set [3] is listed as “inhibits”. Also, the “cell growth, combination with E2 or BBP” value in the data set with breast cancer cells (peptide 100 μmol/l with E2 (1 μM) or BBP (1 μM)) is “blocked the activity of E2 and BBP”. In addition, the “cell growth, combination with TAM” value with breast cancer cells (peptide 100 μmol/l with TAM (1 μM)) was “increased the response of TAM”. In addition, the cell growth result with ZR-75-30 cells was “inhibits the growth”. For the same substance, the tumor growth result in [4] and in data set [5] was “inhibited tumor growth” throughout. Further, the “gene expression of the 27 candidate genes” value in data set [6] and in data set [7] was “decreased” in each case. Moreover, the body weight result in data set [8] (nude mice, 1 and 10 mg/kg intratumoral once every 2 days for 35 days, vs control peptide) is recorded as “without having any effect on body weight”. The signs of toxicity entry in data set [8] (nude mouse and zebrafish xenotransplantation models) was “no signs of toxicity”. Moreover, the “cell growth of embryonic kidney cells” value in the data set with HEK293 cells is reported as “did not inhibit the growth”.

Values taken from PMC4707489, “A novel cell-penetrating peptide suppresses breast tumorigenesis by inhibiting β-catenin/LEF-1 signaling” (Scientific Reports, 2016).
